Measured values taken from US10568320B2, “Biologically-based control methods for insect pests” (The United States of America, as represented by the …, priority 2017, dated 2020).

How the values were obtained:
fire ant workers [1] = experiment: Example 14 feeding experiments: fire ant worker mortality
[2] = test system: monogyne queenright colonies; experiment: Feeding of monogyne queenright colonies: worker and queen mortality; type: in vivo, Solenopsis invicta; conditions: 1% in 10% sucrose, 27 d
From the text: FIGS. 24A and 24B show results for the sucrose (10%) control and two treatments, tyramine (1%) and N-methyl-tyramine (1%), both dissolved in 10% sucrose. The control and test colonies were monogyne queenright colonies, containing a single queen, brood and workers started in the laboratory from newly mated queens collected in the field. The mean number of workers per colony was 8,400±400. […] Previous experiments used queenless sub-colonies, rather than the queenright colonies in these experiments. The mortality effect on colony queens was unexpected, since worker fire ants are completely sterile and cannot reproduce even if the queen dies. Therefore, when the reproductive queen dies no more brood is produced and the colony is no longer functional—it is considered dead. […] Therefore, 80% of the treated colonies were considered dead.

[3] = Solubility in aqueous solution; type: physicochemical; conditions: solution
female sexuals (alates) = experiment: Worker attraction to poison sac extracts of dealates (queen pheromone bioassay); type: in vivo, Solenopsis invicta; conditions: extracts from dealates of fed sub-colonies
fire ant workers [4] = experiment: Five biogenic amines fed to fire ant workers as droplets; type: in vivo, Solenopsis invicta; conditions: 1% (w/v) as HCl salts in 10% sucrose, 48 h, 60 workers
Description: Tyramine is one of five biogenic amines that may be found in insects (e.g., dopamine, histamine, octopamine, serotonin, and tyramine). The experiment in this example tests whether fire ant worker mortality effects observed with tyramine may be a general result of the ants ingesting greater than normal amounts of a biogenic amine. To test this hypothesis groups of 20 fire ant worker ants were starved for 24 hours and fed a 1% (w/v) biogenic amine in 10% sucrose solution. Treatments and sucrose were presented to the worker ants as a 25 microliter droplet on a 2 cm^2 piece of silicon treated filter paper. Each treatment and control were performed in triplicate for a total of 60 worker ants per treatment and control. Mortality was monitored for the first 7-8 h after introduction of the sucrose solutions, then at 24 h. The feeding/monitoring sequence was repeated for another 24 h period for a total of 48 h. The results are shown in FIG. 12A-12B in the form of Kaplan-Meier mortality curves.

[5] = test system: mature female alates (MFAs); experiment: Injection into MFA abdomen: ovariole development and egg-laying; type: in vivo, Solenopsis invicta; conditions: 100 nL of a 1.0% saline solution (1 microgram) injected
From the text: Two measures of ovariole development were used. […] Measurement of ovariole area in the same samples gave a quantitative measure of ovariole development. […] Within the context of a colony this effect would be in direct conflict with the colony queen. Eggs laid would not be fertile and therefore develop into males. Queen pheromone is also produced by […], which would act to reduce the fecundity of the colony queen. For example, in polygyne colonies the higher the number of queens the lower is the mean egg-laying rate/queen due to the presence of excess queen pheromone (see Vander Meer, R. K., et al. (1992), A comparison of queen oviposition rates from monogyne and polygyne fire ant, Solenopsis invicta, colonies.

[6] = test system: mature female alates (MFAs); experiment: Injection into MFA abdomen: wing loss (dealation); type: in vivo, Solenopsis invicta; conditions: 100 nL of a 1.0% saline solution injected into the MFA abdomen
From the text: While the MFAs are in their mother colony, the queen releases primer pheromones that inhibit wing loss (sometimes referred to herein as “dealation”), development of ovaries, wing muscle histolysis, and pheromone production. This release prevents reproductive/resource competition between the MFAs and the mother queen. If MFAs are removed from the colony, they become disinhibited and eventually (e.g., within days) lose their wings and start the physiological processes (e.g., wing loss and ovariole development). MFA also become disinhibited when they leave the colony on a mating flight; however, in this case the now NMQs lose their wings within minutes of landing and initiate the above mentioned physiological/biochemical changes (e.g., wing loss and ovariole development). We know from previous experiments that mating is the trigger, not mating flight initiation or the act of flying (Burns, S. N., et al. (2002) Identification and action of juvenile hormone III from sexually mature alate females of the red imported fire ant, Solenopsis invicta. Journal of Insect Physiology 48: 357-365; Burns, S. N., et al. (2005), The effect of age and social environment on dealation in Solenopsis invicta (Hymenoptera: Formicidae) female […]. […] Burns, S. N., et al. […]

fire ant workers [7] = experiment: Droplet feeding of worker groups: mortality over 24 h and concentration series; type: in vivo; conditions: about 1% in 10% sucrose
Description: To determine how quickly the tyramine and acetyl tyramide act, 60 workers were allowed to feed on tyramine (FIG. 8A) or acetyl tyramide (FIG. 8B) dissolved at about 1% in 10% sucrose solution. The control and treatments were presented to the worker ants as droplets on phase separation filter paper. Consumption of the droplets was readily observed. Mortality was monitored for each of the first 10 hours and then at 24 hours. […] Tyramine and acetyl tyramide had >50% and >40% mortality, respectively within the 24 h time period of the experiment. […] This distribution is a cornerstone of pest ant baits. To test this hypothesis, a similar experiment was conducted. Workers were allowed to feed on the treatment and control solutions and were then transferred to another container with unfed nestmates. In all cases, it was observed that the treatment fed workers regurgitated the treatment and sucrose solutions to their unfed nestmates through the classic mechanism of trophallaxis (data not shown). Thus, normal worker behavior necessary for bait development was not affected by the treatments under these experimental conditions.
One criteria for an effective pest ant Active Ingredient (AI) is maintenance of activity over 1-3 orders of magnitude, because as the bait is distributed from one ant to another the material is diluted. The AI must maintain activity until all individuals in the colony (e.g., workers, brood and sexuals including the queen) have received the AI. […] Journal of Economic Entomology 99(5): 1739-1748). The 0.01% had >24 h delay in mortality.

4th instar sexual larvae = experiment: Direct (hand) feeding of 4th instar sexual larvae; type: in vivo, Solenopsis invicta; conditions: fed once, 80 nL max of about 1% w/v in 10% sucrose; N=10
From the text: It was concluded that the 4th instar larvae are refractory to the mortality effects observed when workers are fed tyramine.

For COc1ccccc1CCN [2-methoxy-phenethylamine], the “fire ant worker mortality versus 10% sucrose control” value (fire ant workers [1]; 1.0% in 10% sucrose) was “No difference in mortality”.

For COc1ccc(CCN)cc1Cl [3-chloro-4-methoxyphenethylamine], the “fire ant worker mortality versus 10% sucrose control” value (fire ant workers [1]; 0.1% in 10% sucrose) was “significantly different from the 10% sucrose control”, the “fire ant worker mortality versus 10% sucrose control” value (fire ant workers [1]; 1.0% in 10% sucrose) was “significantly different from the 10% sucrose control” and the mortality (fire ant workers [1]; 1.0 and 0.1% in 10% sucrose) was “about 8%”.

For COc1cccc(CCN)c1 [3-methoxy-phenethylamine], the “fire ant worker mortality versus 10% sucrose control” value (fire ant workers [1]; 1.0% in 10% sucrose) was “No difference in mortality”.

In the case of NCCc1ccc(Br)cc1 [4-bromophenethylamine, 4-bromo-phenethylamine], the “fire ant worker mortality versus 10% sucrose control” value (fire ant workers [1]; 1.0% in 10% sucrose) is reported as “Significant, but low, worker mortality”.

In the case of NCCc1ccc(Cl)cc1 [4-chlorophenethylamine, 4-chloro-phenethylamine], the “fire ant worker mortality versus 10% sucrose control” value (fire ant workers [1]; 1.0% in 10% sucrose) is reported as “Significant, but low, worker mortality”.

In the case of NCCc1ccc(F)cc1 [4-flurophenethylamine], the “fire ant worker mortality versus 10% sucrose control” value (fire ant workers [1]; 1.0% in 10% sucrose) is reported as “Significant, but low, worker mortality”.

In the case of COc1ccc(CCN)cc1 [4-methoxy-phenethylamine], the “fire ant worker mortality versus 10% sucrose control” value (fire ant workers [1]; 1.0% in 10% sucrose) is reported as “No difference in mortality”.

In the case of CN(C)CCc1ccc(O)cc1 [N,N-dimethyl-tyramine], the “fire ant worker mortality versus 10% sucrose control” value (fire ant workers [1]; 1.0% in 10% sucrose) is reported as “no difference in mortality”.

With CNCCc1ccc(O)cc1.Cl [N-methyl-tyramine (HCl)] the “fire ant worker mortality versus 10% sucrose control” value (fire ant workers [1]; 0.01% in 10% sucrose) was “significantly different from the sucrose control”, the “speed of worker mortality versus tyramine at the same concentration” value (fire ant workers [1]; 0.01%, p<0.01) was “significantly faster than the 0.01% tyramine” and the “fire ant worker mortality versus 10% sucrose control” value (fire ant workers [1]; 0.1% in 10% sucrose) was “significantly different from the sucrose control”. For the same compound, the “speed of worker mortality versus tyramine at the same concentration” value (fire ant workers [1]; 0.1%, p=0.22) was “not significantly faster than the 0.1% tyramine”, the “fire ant worker mortality versus 10% sucrose control” value (fire ant workers [1]; 1.0% in 10% sucrose) was “significantly different from the sucrose control” and the “speed of worker mortality versus tyramine at the same concentration” value (fire ant workers [1]; 1.0%, p<0.001) was “significantly faster worker mortality than the 1.0% tyramine”. For the same compound, the “speed of action compared to the N-methyl tyramine free-base” value (fire ant workers [1]; in vivo) was “appears to be quicker acting”.

With CNCCc1ccc(O)cc1 [N-methyl-tyramine (free base), N-methyl-tyramine] the “% worker mortality at the end of the experiment versus control” value [2] was “significantly different from the corresponding controls”, the “fate of colony queens (five replicates)” value [2] was “all queen replicates (5) died” and the “queen mortality at the end of the experiment versus control” value [2] was “significantly different from the corresponding controls”. The colonies considered dead ([2]; five colonies) was 100%, the solubility maximum [3] was 1% and the “worker attraction to poison sac extracts compared among active treatments” value (female sexuals (alates)) was “significantly greater worker attraction than poison sac extracts from tyramine treatments”. The “worker attraction to poison sac extracts versus N,N-dimethyl tyramine treatment and controls” value (female sexuals (alates)) was “significantly different from those from the N,N-dimethyl tyramine treatment and the sucrose and hexane controls”, the “fire ant worker mortality versus 10% sucrose control” value (fire ant workers [1]; 0.01% in 10% sucrose) was “significantly different from the 10% sucrose control” and the “fire ant worker mortality versus 10% sucrose control” value (fire ant workers [1]; 0.1% in 10% sucrose) was “significantly different from the 10% sucrose control”. For the same compound, the “fire ant worker mortality versus 10% sucrose control” value (fire ant workers [1]; 1.0% in 10% sucrose) was “significantly different from the 10% sucrose control” and the “mortality at the two lower concentrations (0.1 and 0.01%) versus the 1.0% concentration” value (fire ant workers [1]; in 10% sucrose) was “significantly higher mortality than the 1.0% concentration”.

For NCCc1ccc(O)c(O)c1 [dopamine], the “worker mortality (Kaplan-Meier)” value (fire ant workers [4]) was “did not result in significant mortality”.

For CCCCCC(=O)NCCc1ccc(O)cc1 [hexanoyl tyramide], the “degradation of the tyramide” value (MFA mid- and hind-gut) was “No degradation of the tyramide was observed”, the “ovariole development, ovariole area, compared to controls” value [5] was “not hexanoyl tyramide caused significant ovariole development” and the “ovariole development, ovary rank 1-4, compared to the control” value [5] was “significant ovariole development”.

For NCCc1c[nH]cn1 [histamine], the “worker mortality (Kaplan-Meier)” value (fire ant workers [4]) was “did not result in significant mortality”.

In the case of NCC(O)c1ccc(O)cc1 (stereo not drawn) [octopamine], the “worker mortality (Kaplan-Meier)” value (fire ant workers [4]) is reported as “did not result in significant mortality”.

In the case of NCCc1c[nH]c2ccc(O)cc12 [serotonin], the “worker mortality (Kaplan-Meier)” value (fire ant workers [4]) is reported as “did not result in significant mortality”.

In the case of Cl.NCCc1ccc(O)cc1 [tyramine HCl], the “worker mortality (Kaplan-Meier)” value (fire ant workers [4]) is reported as “statistically greater mortality than the control and the other 4 biogenic amines”, the “worker attraction to poison sac extracts compared among active treatments” value (female sexuals (alates)) is reported as “not different from tyramine or N-methyl tyramine” and the “worker attraction to poison sac extracts versus N,N-dimethyl tyramine treatment and controls” value (female sexuals (alates)) is reported as “significantly different from those from the N,N-dimethyl tyramine treatment and the sucrose and hexane controls”.

In the case of acetyl tyramide, the “degradation of the tyramide” value (MFA mid- and hind-gut) is reported as “No degradation of the tyramide was observed”, the “dealation (wing loss) compared to the control” value [6] is reported as “significantly faster and inappropriate dealation” and the “ovariole development, ovariole area, compared to controls” value [5] is reported as “caused significant ovariole development”. The “ovariole development, ovary rank 1-4, compared to the control” value [5] was “significant ovariole development”, the “worker mortality compared with sucrose control (Kaplan-Meier, Log-rank)” value (fire ant workers [7]; 24 h) was “significantly greater worker mortality than the sucrose control” and the “worker mortality within the 24 h time period” value (fire ant workers [7]; droplets, 60 workers) was > 40%. For the same compound, the “mortality / sickness of 4th instar sexual larvae” value (4th instar sexual larvae) was “none of the acetyl tyramide treatments died or appeared sick”.
